Reference: patent US20140190599A1 (priority 2004, published 2014)

System: rat
Details: in vivo

SMILES: NN [Hydrazine]
- LD50rat: 60 mg/kg

SMILES: NNCCO.O=[N+]([O-])O [HEHN, 2-hydroxyethyl hydrazinium nitrate]
- LD50rat: 325 mg/kg
